Results taken from patent US12637427B2, “ALDH-2 inhibitor compounds and methods of use” (Amygdala Neurosciences, Inc., priority 2022, dated 2026).

Columns and labels:
[1] = O'Malley et al. 2021; cited from earlier work
recombinant human ALDH-3 = target: T1, recombinant human ALDH-3 (Homo sapiens, UniProt P30838); experiment: ALDH-3 inhibition assay; format: biochemical; details: 60 min pre-incubation; 10 μM = highest concentration tested; read-out: Enzymatic Assays IC50 ALDH-3
T1 sequence (P30838 1-453): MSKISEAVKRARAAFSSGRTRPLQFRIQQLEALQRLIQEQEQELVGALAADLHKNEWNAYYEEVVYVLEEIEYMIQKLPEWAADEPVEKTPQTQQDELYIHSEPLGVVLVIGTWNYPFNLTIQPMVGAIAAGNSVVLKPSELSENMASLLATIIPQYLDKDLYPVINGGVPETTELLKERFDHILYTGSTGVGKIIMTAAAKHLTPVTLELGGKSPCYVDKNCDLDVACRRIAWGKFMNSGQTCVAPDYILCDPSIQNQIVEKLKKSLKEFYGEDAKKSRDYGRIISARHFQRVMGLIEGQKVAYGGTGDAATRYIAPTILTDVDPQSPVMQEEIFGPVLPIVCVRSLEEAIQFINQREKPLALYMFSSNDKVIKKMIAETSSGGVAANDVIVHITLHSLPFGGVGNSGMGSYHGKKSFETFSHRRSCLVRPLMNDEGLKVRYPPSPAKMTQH
Experimental: ALDH-3 inhibition assay: The ALDH-3 reaction mixture used in the assay contained 200 μM benzaldehyde, 2.5 mM NAD+, 20 mM NaCl, 10 mM MgCl2, and 10 nM recombinant human ALDH-3 in 50 mM Hepes buffer, pH 7.5 in a final volume of 10 μL using 384-well Corning 3820 plates. After 60 min of pre-incubation of the test ALDH-2 inhibitor compound with ALDH-3, the reaction was started by adding NAD+ and benzaldehyde and the assay reaction mixture was allowed to proceed for 60 minutes. Activity of the ALDH-3 enzyme was determined by monitoring NADH formation using Perkin-Elmer Envision Reader with excitation and emission wavelengths set at 340 and 460 nm, respectively.

recombinant human ALDH-2 = target: T2, recombinant human ALDH-2 (Homo sapiens, UniProt P05091); experiment: ALDH-2 inhibition assay; format: biochemical; details: 60 min pre-incubation; 10 μM = highest concentration tested; read-out: Enzymatic Assays IC50 ALDH2
T2 sequence (P05091 18-517): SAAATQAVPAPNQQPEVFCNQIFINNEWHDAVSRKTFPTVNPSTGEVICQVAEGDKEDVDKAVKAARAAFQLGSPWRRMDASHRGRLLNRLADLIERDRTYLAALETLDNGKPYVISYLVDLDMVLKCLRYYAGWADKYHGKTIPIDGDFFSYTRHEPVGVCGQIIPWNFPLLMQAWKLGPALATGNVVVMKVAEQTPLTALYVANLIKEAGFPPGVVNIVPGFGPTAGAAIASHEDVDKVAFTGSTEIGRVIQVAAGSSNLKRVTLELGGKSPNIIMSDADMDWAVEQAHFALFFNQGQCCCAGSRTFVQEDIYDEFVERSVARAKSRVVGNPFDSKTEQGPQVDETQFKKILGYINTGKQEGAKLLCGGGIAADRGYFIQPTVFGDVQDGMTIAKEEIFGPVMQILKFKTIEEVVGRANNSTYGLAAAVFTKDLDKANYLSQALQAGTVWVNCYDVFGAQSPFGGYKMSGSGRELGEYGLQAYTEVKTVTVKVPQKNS
Experimental: A. ALDH-2 inhibition assay: The ALDH-2 reaction mixture used in the assay contained 125 μM formaldehyde, 75 μM NAD+, 20 mM NaCl, 10 mM MgCl2, and 20 nM recombinant human ALDH-2 in 50 mM Hepes buffer, pH 7.5 in a final volume of 10 μL using 384-well Corning 3820 plates. After 60 min of pre-incubation of the test ALDH-2 inhibitor compound with ALDH-2, the reaction was started by adding NAD+ and formaldehyde and the assay reaction mixture was allowed to proceed for 60 minutes. Activity of the ALDH-2 enzyme was determined by monitoring NADH formation using Perkin-Elmer Envision Reader with excitation and emission wavelengths set at 340 and 460 nm, respectively.

recombinant human ALDH-1 = target: T3, recombinant human ALDH-1 (Homo sapiens, UniProt P00352); experiment: ALDH-1 inhibition assay; format: biochemical; details: 60 min pre-incubation; 10 μM = highest concentration tested; read-out: Enzymatic Assays IC50 ALDH-1
T3 sequence (P00352 1-501): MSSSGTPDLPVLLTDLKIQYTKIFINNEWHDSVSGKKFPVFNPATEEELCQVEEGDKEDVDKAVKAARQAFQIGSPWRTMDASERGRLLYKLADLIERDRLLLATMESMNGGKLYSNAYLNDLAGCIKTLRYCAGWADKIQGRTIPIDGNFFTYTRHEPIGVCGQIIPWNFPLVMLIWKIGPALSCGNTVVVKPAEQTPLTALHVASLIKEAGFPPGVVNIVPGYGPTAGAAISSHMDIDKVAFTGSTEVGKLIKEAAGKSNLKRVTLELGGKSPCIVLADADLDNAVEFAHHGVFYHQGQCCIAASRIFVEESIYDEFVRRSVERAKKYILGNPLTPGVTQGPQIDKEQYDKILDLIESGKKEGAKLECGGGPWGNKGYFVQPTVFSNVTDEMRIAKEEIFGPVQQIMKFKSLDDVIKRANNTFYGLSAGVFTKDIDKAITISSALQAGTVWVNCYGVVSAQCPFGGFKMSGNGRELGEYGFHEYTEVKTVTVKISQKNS
Experimental: B. ALDH-1 inhibition assay: The ALDH-1 reaction mixture used in the assay contained 100 μM formaldehyde, 2.5 mM NAD+, 20 mM NaCl, 10 mM MgCl2, 1 mM dithiothreitol (DTT; reducing agent), and 50 nM recombinant human ALDH-1 in 50 mM Hepes buffer, pH 7.5 in a final volume of 10 μL using 384-well Corning 3820 plates. After 60 min of pre-incubation of the test ALDH-2 inhibitor compound with ALDH-1, the reaction was started by adding NAD+ and formaldehyde and the assay reaction mixture was allowed to proceed for 60 minutes. Activity of the ALDH-1 enzyme was determined by monitoring NADH formation using Perkin-Elmer Envision Reader with excitation and emission wavelengths set at 340 and 460 nm, respectively.

MAO-B = target: T4, MAO-B (Homo sapiens, UniProt P27338); experiment: MAO-B inhibition assay; format: biochemical; details: 20 min pre-incubation; 10 μM = highest concentration tested; read-out: Enzymatic Assays IC50 MAO-B
T4 sequence (P27338 1-520): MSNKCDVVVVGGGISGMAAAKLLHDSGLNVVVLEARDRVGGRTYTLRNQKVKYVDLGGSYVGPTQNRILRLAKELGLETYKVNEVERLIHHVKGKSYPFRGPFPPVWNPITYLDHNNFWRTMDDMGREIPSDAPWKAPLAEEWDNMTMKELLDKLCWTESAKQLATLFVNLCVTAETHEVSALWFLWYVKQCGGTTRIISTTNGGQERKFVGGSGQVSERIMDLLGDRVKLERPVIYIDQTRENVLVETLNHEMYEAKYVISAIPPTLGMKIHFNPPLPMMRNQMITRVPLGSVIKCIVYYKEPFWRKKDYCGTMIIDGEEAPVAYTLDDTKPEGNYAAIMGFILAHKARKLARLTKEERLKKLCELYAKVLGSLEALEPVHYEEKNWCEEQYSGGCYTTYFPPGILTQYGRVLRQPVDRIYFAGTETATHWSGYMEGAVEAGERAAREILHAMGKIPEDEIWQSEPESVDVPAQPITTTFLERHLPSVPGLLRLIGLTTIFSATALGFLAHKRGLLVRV
Experimental: (§1) D. MAO-A and MAO-B inhibition assays: MAO assays included luminogenic MAO substrate, reaction buffers, Luciferin Detection, and a reconstitution buffer with esterase. The MAO reaction mixture used in the assay included microsome contained MAO-A (2 μg) or MAO-B (10 μg), 160 μM substrate for MAO-A or 16 μM substrate for MAO-B, MAO-A buffer (100 mM Hepes buffer, pH 7.5, 5% glycerol) or MAO-B buffer (100 mM Hepes, pH 7.5, 5% glycerol, 10% dimethyl sulfoxide) in a final volume of 30 μL. After 20 minutes of pre-incubation of the MAO-A or MAO-B enzyme with the test ALDH-2 inhibitor compound, the reaction was initiated by adding enzyme substrate and the […] reaction was allowed to proceed for 60 minutes. Reconstituted Luciferin Detection Reagent (30 μL) was then added is added to simultaneously stop the MAO reaction and convert the methyl ester derivative to luciferin and produce light. The amount of light produced is directly proportional to the activity of MAO. The mixtures were further incubated for 20 minutes and activity of the enzyme was determined using Perkin-Elmer Envision Reader.

MAO-A = target: T5, MAO-A (Homo sapiens, UniProt P21397); experiment: MAO-A inhibition assay; format: biochemical; details: 20 min pre-incubation; 10 μM = highest concentration tested; read-out: Enzymatic Assays IC50 MAO-A
T5 sequence (P21397 1-527): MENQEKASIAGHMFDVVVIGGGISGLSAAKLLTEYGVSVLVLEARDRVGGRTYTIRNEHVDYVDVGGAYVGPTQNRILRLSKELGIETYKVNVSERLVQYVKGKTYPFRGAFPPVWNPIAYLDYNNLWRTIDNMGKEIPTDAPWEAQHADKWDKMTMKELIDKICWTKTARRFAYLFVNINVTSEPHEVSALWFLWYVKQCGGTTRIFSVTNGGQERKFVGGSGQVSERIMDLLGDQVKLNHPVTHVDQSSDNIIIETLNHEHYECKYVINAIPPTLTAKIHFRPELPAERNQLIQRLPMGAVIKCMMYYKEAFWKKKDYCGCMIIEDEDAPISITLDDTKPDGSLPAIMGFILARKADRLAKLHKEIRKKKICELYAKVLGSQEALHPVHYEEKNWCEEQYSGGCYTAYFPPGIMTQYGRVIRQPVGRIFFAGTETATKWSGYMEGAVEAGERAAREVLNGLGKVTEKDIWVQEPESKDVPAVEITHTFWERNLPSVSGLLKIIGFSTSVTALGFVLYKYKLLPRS
Experimental: as §1

HepaRG spheroids = experiment: HepaRG 3D spheroid assay; format: cell-based; details: minimum effective concentration crossing vehicle control threshold of cell health marker; 100 μM = highest concentration tested
Source text: See e.g., Walker et al., “The evolution of strategies to minimise the risk of human drug-induced liver injury (DILI) in drug discovery and development,” (2020) Archives of Toxicology, Vol. 94: 2559-2585, which is hereby incorporated by reference herein in its entirety. […] In applying the HepaRG spheroid assay analysis to determining the hepatoxic liability of ALDH-2 inhibitor compounds, consideration is made of the binding to plasma protein and the limitations to CNS penetration due to the blood-brain barrier.
E. HepaRG® 3D spheroid assay: The HepaRG 3D spheroid assay is described in Walker et al., “The evolution of strategies to minimise the risk of human drug-induced liver injury (DILI) in drug discovery and development,” (2020) Archives of Toxicology, Vol. 94: 2559-2585. Briefly, HepaRG® cells were seeded into ultra-low adhesion 96-well black walled clear bottomed spheroid microplates. […] At the end of the incubation period, the spheroids were loaded with the relevant dye/antibody for each cell health marker (spheroid count, spheroid size, DNA structure, mitochondrial mass, mitochondrial membrane potential, oxidative stress, glutathione content, and cellular ATP). The plates were then scanned using an automated fluorescent cellular imager, ArrayScan® (Thermo Scientific Cellomics).

| SMILES | hepatotoxicity in humans [1] | IC50 (recombinant human ALDH-3) | IC50 (recombinant human ALDH-2) | IC50 (recombinant human ALDH-1) | IC50 (MAO-B) | IC50 (MAO-A) | HepaRG 3D Spheroid MEC (HepaRG spheroids) |
| --- | --- | --- | --- | --- | --- | --- | --- |
| O=C(NCc1ccc(-c2cc[nH]c(=O)c2)cc1)c1c(Cl)cccc1Cl [2,6-dichloro-N-[4-(2-oxo-1,2-dihydro-pyridin-4-yl)-benzyl]-benzamide] | high levels of hepatotoxicity |  |  |  |  |  |  |
| O=C(NCc1ccc(-c2[nH]c(=O)ccc2F)cc1)c1ccccc1Cl [Compound (1f), 2-Chloro-N-(4-(3-fluoro-6-oxo-1,6-dihydropyridin-2-yl)benzyl)benzamide] |  | > 10 µM | 0.329 µM | > 10 µM | > 10 µM | > 10 µM |  |
| O=C(NCc1ccc(-c2cccc(=O)[nH]2)nc1)c1c(Cl)cccc1Cl [(1j), 2,6-Dichloro-N-((6′-oxo-1′,6′-dihydro-[2,2′-bipyridin]-5-yl)methyl)benzamide] |  |  | 0.007 µM | > 10 µM | > 10 µM | > 10 µM | 5.06 µM |
| Cc1cccc(Cl)c1C(=O)NCc1cnc(-c2cccc(=O)[nH]2)nc1 [(1n), 2-Chloro-6-methyl-N-((2-(6-oxo-1,6-dihydropyridin-2-yl)pyrimidin-5-yl)methyl)benzamide] |  |  | 0.031 µM | > 10 µM | > 10 µM | > 10 µM | 7.48 µM |
| Cc1nccc(Cl)c1C(=O)NCc1ccc(-c2[nH]c(=O)ccc2F)cc1 [(1h), 4-Chloro-N-(4-(3-fluoro-6-oxo-1,6-dihydropyridin-2-yl)benzyl)-2-methylnicotinamide] |  |  | 0.1 µM | > 10 µM | > 10 µM | > 10 µM | 53.9 µM |
| O=C(NCc1ccc(-c2[nH]c(=O)ccc2F)cc1)c1c(Cl)cccc1Cl [Compound (1d), 2,6-dichloro-N-(4-(3-fluoro-6-oxo-1,6-dihydropyridin-2-yl)benzyl)benzamide] |  |  | 0.027 µM | > 10 µM | > 10 µM | > 10 µM | No Effect |
| Cc1nccc(Cl)c1C(=O)NCc1ccc(-c2cccc(=O)[nH]2)nc1 [(1m), 4-Chloro-2-methyl-N-((6′-oxo-1′,6′-dihydro-[2,2′-bipyridin]-5-yl)methyl)nicotinamide] |  | > 10 µM | 0.98 µM | > 10 µM | > 10 µM | > 10 µM |  |
| O=C(NCc1ccc(-c2[nH]c(=O)ccc2F)nc1)c1c(Cl)cccc1Cl [(1i), 2,6-dichloro-N-((3′-fluoro-6′-oxo-1′,6′-dihydro-[2,2′-bipyridin]-5-yl)methyl)benzamide] |  |  | 0.004 µM | > 10 µM | > 10 µM | > 10 µM | 15.3 µM |
| Cc1cccc(Cl)c1C(=O)NCc1ccc(-c2[nH]c(=O)ccc2F)cc1 [Compound (1e), 2-Chloro-N-(4-(3-fluoro-6-oxo-1,6-dihydropyridin-2-yl)benzyl)-6-methylbenzamide] |  |  | 0.009 µM | > 10 µM | > 10 µM | > 10 µM | 50.4 µM |
